Test results reported in US20210115104A1, “AMYLIN ANALOGUES” (Zealand Pharma A/S, priority 2015, published 2021).
*1 amine or outer side, *2 acyl side, *3 side chain or, on linkers, in order; H or OH if unused. Where a SMILES comes first, the peptide text is derived from it. Bridges are numbered along the chain shown (N, C = ends). [ ]: non-standard residue; d: D form. The star is where a group is joined. C20 diacid = O=C(O)CCCCCCCCCCCCCCCCCCC(=O)*; γGlu = O=C(O)[C@H](CCC(=O)[*:2])N[*:1]; Hyp = O=C(O)[C@@H]1C[C@@H](O)CN1; NMeI = CC[C@H](C)[C@H](NC)C(=O)O; Sar = CNCC(=O)O

How the values were obtained:
[1] = biological target: T1, human calcitonin receptor (hCTR2) (Homo sapiens, UniProt P30988); assay: hCTR2 cAMP assay (AlphaScreen) in COS7 cells; type: cell-based; conditions: cAMP induction, COS7 cells expressing hCTR2; Table 1; read-out: hCTR2 EC50
T1 construct: expressed in transfected cells
T1 sequence (P30988 25-474): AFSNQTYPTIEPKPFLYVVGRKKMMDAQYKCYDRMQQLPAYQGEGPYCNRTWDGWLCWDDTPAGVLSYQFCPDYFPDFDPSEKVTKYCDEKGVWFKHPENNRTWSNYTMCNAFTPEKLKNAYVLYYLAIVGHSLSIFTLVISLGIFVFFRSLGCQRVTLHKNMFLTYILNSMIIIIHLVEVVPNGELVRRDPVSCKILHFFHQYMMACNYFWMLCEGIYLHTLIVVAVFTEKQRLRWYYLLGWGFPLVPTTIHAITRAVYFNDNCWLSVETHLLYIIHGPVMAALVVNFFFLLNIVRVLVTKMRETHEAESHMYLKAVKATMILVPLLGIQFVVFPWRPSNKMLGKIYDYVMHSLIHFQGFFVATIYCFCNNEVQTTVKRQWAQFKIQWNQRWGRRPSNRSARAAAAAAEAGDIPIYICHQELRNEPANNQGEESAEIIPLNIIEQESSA
Procedure, shortened: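 Stable hCTR2 clone in RAMP-naïve COS7 cells stimulated 15 min at 37 °C with increasing peptide concentrations in Tyrode buffer pH 7.4 containing IBMX and 0.1% casein. cAMP in lysates measured by AlphaScreen; EC50 from 4-parameter logistic fit.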

[2] = biological target: T2, human amylin receptor 3 (hAMYR3), hCTR2 co-expressed with hRAMP3 (Homo sapiens, UniProt O60896+P30988); assay: hAMYR3 cAMP assay (AlphaScreen) in COS7 cells; type: cell-based; conditions: cAMP induction, COS7 cells expressing hAMYR3; Table 1; read-out: hAMYR3 EC50
T2 construct: expressed in transfected cells
T2 sequence (P30988 25-474): T1 sequence (P30988 25-474)
T2 sequence (O60896 24-148 partner): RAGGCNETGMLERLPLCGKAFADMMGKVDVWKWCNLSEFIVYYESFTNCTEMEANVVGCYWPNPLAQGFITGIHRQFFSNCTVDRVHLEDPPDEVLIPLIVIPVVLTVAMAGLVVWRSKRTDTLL
Procedure, shortened: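 Stable COS7 clone co-expressing hCTR2 and hRAMP3 was exposed to increasing peptide concentrations in Tyrode buffer (pH 7.4) with 100 µM IBMX and 0.1% casein for 15 min at 37 °C. Lysate cAMP was measured by AlphaScreen; EC50 came from 4-parameter logistic fitting.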

[3] = Assessment of chemical stability (RP-HPLC normalized purity); type: physicochemical; conditions: 7 days, 40° C., Table 1
Procedure, shortened: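 Peptides at 0.2 mg/ml in water adjusted to pH 4, 6, 7.5 or 9, incubated at 40° C for 7 days. Main-peak area-% by RP-HPLC (C8 ammonium formate or C18 TFA gradient, UV 220 nm), normalized to T=0 as 100.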

## CC[C@H](C)[C@@H](C(=O)N[C@@H](CC(C)C)C(=O)N[C@@H](CO)C(=O)N[C@@H](CO)C(=O)N[C@H](C(=O)N[C@@H](CCC(=O)O)C(=O)N[C@H](C(=O)NCC(=O)N[C@@H](CO)C(=O)NCC(=O)N[C@H](C(=O)N1C[C@H](O)C[C@H]1C(N)=O)[C@@H](C)O)C(C)C)[C@@H](C)O)N(C)C(=O)[C@H](C)NC(=O)CN(C)C(=O)[C@H](Cc1ccccc1)NC(=O)[C@H](CO)NC(=O)[C@H](CO)NC(=O)[C@H](CCCNC(=N)N)NC(=O)[C@H](CCC(N)=O)NC(=O)[C@H](CC(C)C)NC(=O)[C@H](Cc1ccccc1)NC(=O)[C@H](Cc1c[nH]cn1)NC(=O)[C@H](C)NC(=O)[C@H](CC(C)C)NC(=O)[C@H](CCCNC(=N)N)NC(=O)[C@H](CCC(N)=O)NC(=O)[C@@H](NC(=O)[C@H](C)NC(=O)[C@@H]1CSSC[C@H](NC(=O)[C@H](CCCNC(=N)N)NC(=O)CC[C@H](NC(=O)CCCCCCCCCCCCCCCCCCC(=O)O)C(=O)O)C(=O)N[C@@H](CC(N)=O)C(=O)N[C@@H]([C@@H](C)O)C(=O)N[C@@H](C)C(=O)N[C@@H]([C@@H](C)O)C(=O)N1)[C@@H](C)O [Compound 71, [19CD]-isoGlu-R-C( )-NTAT-C( )-ATQRLAHFLQRSSF-Gly(Me)-A-Ile(Me)-LSSTEVGSGT-Hyp-NH2] ({C20 diacid-γGlu}-RCNTATCATQRLAHFLQRSSF[Sar]A[NMeI]LSSTEVGSGT[Hyp]-NH2; disulfide 2-7)
[1]
  EC50: 0.11 nM
[2]
  EC50: 0.18 nM
[3]; pH 4, 0.2 mg/ml
  Normalized purity after 7 days, 40° C., pH 4: A (A = >90%)
[3]; pH 6, 0.2 mg/ml
  Normalized purity after 7 days, 40° C., pH 6: A (A = >90%)
[3]; pH 7.5, 0.2 mg/ml
  Normalized purity after 7 days, 40° C., pH 7.5: A (A = >90%)
[3]; pH 9, 0.2 mg/ml
  Normalized purity after 7 days, 40° C., pH 9: B (B = 70-90%)
